In patent US11939314B2, “Quinolin-2-one derivatives” (MERCK PATENT GMBH, priority 2016, dated 2024):

Legend:
c-Kit(V654A) = molecular target: T1, c-Kit(V654A) (Homo sapiens, UniProt P10721, V654A); assay: c-Kit(V654A) assay; assay type: biochemical; details: recombinant human c-Kit aa 544-end, 200 μM ATP, 1.4E-06 means 1.4×10^−6, read-out: Inhibition (IC50) of c-KIT (V654A)
T1 construct: amino acids 544-end containing the V654A mutation; GST (N)
Method in brief: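 Radiometric filter-binding read-out: substrate 33P incorporation counted by scintillation after P30 filtermat washes in 75 mM phosphoric acid and methanol. Enzyme: N-GST recombinant human c-Kit aa 544-end carrying V654A.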

PDGFRalpha(V561D) = molecular target: T2, PDGFRalpha(V561D) (Homo sapiens, UniProt P16234, V561D); assay: PDGFRalpha(V561D) assay; assay type: biochemical; details: recombinant human PDGFRalpha aa 550-end, 200 μM ATP, 1.4E-06 means 1.4×10^−6, read-out: Inhibition (IC50) of PDGFRα (V561D)
T2 construct: recombinant human PDGFRalpha, amino acids 550end containing the V561 D mutation; 6His (N)
T2 sequence (P16234 550-1089 V561D): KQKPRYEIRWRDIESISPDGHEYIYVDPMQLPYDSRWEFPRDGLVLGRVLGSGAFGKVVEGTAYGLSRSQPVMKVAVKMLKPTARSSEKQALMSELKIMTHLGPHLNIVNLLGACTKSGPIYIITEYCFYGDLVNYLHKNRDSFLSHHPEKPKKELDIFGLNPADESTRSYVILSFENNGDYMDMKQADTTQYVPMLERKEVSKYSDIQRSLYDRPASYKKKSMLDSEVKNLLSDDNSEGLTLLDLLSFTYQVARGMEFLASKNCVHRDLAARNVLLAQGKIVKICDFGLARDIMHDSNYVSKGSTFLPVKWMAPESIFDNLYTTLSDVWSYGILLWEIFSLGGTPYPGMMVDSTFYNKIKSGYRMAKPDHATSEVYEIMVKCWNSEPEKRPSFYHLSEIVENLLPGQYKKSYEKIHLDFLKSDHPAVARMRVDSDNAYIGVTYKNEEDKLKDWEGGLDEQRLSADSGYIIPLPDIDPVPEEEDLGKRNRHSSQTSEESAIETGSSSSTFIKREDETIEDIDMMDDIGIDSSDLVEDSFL
Method in brief: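 Radiometric filter-binding assay: substrate phosphorylation by recombinant N-His-tagged human PDGFRα 550-end V561D was quenched with 3% phosphoric acid after 40 min at room temperature, then counted.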

[1] = test system: GISTs with primary mutation; details: secondary resistance emerges in almost all tumors; cited from earlier work

T1 sequence (P10721 544-976 V654A): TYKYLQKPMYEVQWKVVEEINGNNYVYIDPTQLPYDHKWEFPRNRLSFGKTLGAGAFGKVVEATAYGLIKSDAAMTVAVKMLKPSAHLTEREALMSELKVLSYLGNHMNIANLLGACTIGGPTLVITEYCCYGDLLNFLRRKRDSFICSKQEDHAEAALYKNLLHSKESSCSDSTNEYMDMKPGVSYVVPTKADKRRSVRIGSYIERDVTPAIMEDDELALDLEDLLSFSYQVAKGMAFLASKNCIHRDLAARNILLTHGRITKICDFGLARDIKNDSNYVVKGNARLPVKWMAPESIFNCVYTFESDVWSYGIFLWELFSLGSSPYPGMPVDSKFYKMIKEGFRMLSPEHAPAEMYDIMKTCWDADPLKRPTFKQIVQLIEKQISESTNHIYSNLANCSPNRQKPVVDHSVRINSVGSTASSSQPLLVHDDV

Row | SMILES | IC50 (c-Kit(V654A)) | IC50 (PDGFRalpha(V561D)) | initial response rate [1]
1 | O=C(c1ccc(-n2cc(-c3cc4cc(F)ccc4[nH]c3=O)nn2)cc1)N1CCNCC1 [A53, 6-fluoro-3-{1-[4-(piperazine-1-carbonyl)-phenyl]-1H-[1,2,3]triazol-4-yl}-1H-quinolin-2-one] | 11 nM | 9 nM | 
2 | CN1Cc2cc(-n3cc(-c4cc5cc(F)ccc5[nH]c4=O)nn3)ccc2C1=O [A354, 6-fluoro-3-[1-(2-methyl-1-oxo-2,3-dihydro-1H-isoindol-5-yl)-1H-[1,2,3]triazol-4-yl]-1H-quinolin-2-one] | 3100 nM | 420 nM | 
3 | CN1CCN(C(=O)c2ccc(-n3cc(-c4cc5cccc(F)c5[nH]c4=O)nn3)cc2)CC1 [A150, 8-fluoro-3-{1-[4-(4-methyl-piperazine-1-carbonyl)-phenyl]-1H-[1,2,3]triazol-4-yl}-1H-quinolin-2-one] | 49 nM | 37 nM | 
4 | O=C(c1ccc(-n2cc(-c3cc4cc(Cl)ccc4[nH]c3=O)nn2)cc1)N1CCNCC1 [A123, 6-chloro-3-{1-[4-(piperazine-1-carbonyl)-phenyl]-1H-[1,2,3]triazol-4-yl}-1H-quinolin-2-one] | 5 nM | 1 nM | 
5 | Cc1ccc2[nH]c(=O)c(-c3cn(-c4ccc(C(=O)N5CCNCC5)cc4)nn3)cc2c1 [A137, 6-methyl-3-{1-[4-(piperazine-1-carbonyl)-phenyl]-1H-[1,2,3]triazol-4-yl}-1H-quinolin-2-one] | 40 nM | 42 nM | 
6 | CCN(CC)CCNC(=O)c1ccc(-n2cc(-c3cc4cc(F)c(Cl)cc4[nH]c3=O)nn2)cc1 [A188, 4-[4-(7-chloro-6-fluoro-2-oxo-1,2-dihydro-quinolin-3-yl)-[1,2,3]triazol-1-yl]-N-(2-diethylamino-ethyl)-benzamide] | 26 nM | 1600 nM | 
7 | O=C(c1ccc(-n2cc(-c3cc4cc(Cl)ccc4[nH]c3=O)nn2)cc1)N1CC[C@H](F)C1 [A266, 6-chloro-3-{1-[4-((S)-3-fluoro-pyrrolidine-1-carbonyl)-phenyl]-1H-[1,2,3]triazol-4-yl}-1H-quinolin-2-one] | 40 nM | 1.1 nM | 
8 | CN1CCCN(c2ccc(-n3cc(-c4cc5ccccc5[nH]c4=O)nn3)cc2)CC1 [A69, 3-{1-[4-(4-methyl-[1,4]diazepan-1-yl)-phenyl]-1H-[1,2,3]triazol-4-yl}-1H-quinolin-2-one] | 14 nM | 10 nM | 
9 | COCCCN1CCN(C(=O)c2ccc(-n3cc(-c4cc5cc(F)cnc5[nH]c4=O)nn3)cc2)CC1 [A88, 6-fluoro-3-(1-{4-[4-(3-methoxy-propyl)-piperazine-1-carbonyl]-phenyl}-1H-[1,2,3]triazol-4-yl)-1H-[1,8]naphthyridin-2-one] | 90 nM | 6 nM | 
10 | O=c1[nH]c2ccccc2cc1-c1cn(-c2cnc(N3CCNCC3)nc2)nn1 [A54, 3-[1-(2-piperazin-1-yl-pyrimidin-5-yl)-1H-[1,2,3]triazol-4-yl]-1H-quinolin-2-one] | 490 nM | 160 nM | 
11 | Cc1ccc2cc(-c3cn(-c4ccc(C(=O)N5CCOCC5)cc4)nn3)c(=O)[nH]c2c1 [A84, 7-methyl-3-{1-[4-(morpholine-4-carbonyl)-phenyl]-1H-[1,2,3]triazol-4-yl}-1H-quinolin-2-one] | 48 nM | 5 nM | 
12 | O=C(c1ccc(-n2cc(-c3cc4cc(Cl)ccc4[nH]c3=O)nn2)cc1)N1CC[C@@H](F)C1 [A270, 6-chloro-3-{1-[4-((R)-3-fluoro-pyrrolidine-1-carbonyl)-phenyl]-1H-[1,2,3]triazol-4-yl}-1H-quinolin-2-one] | 26 nM | 0.2 nM | 
13 | O=C(c1ccc(-n2cc(-c3cc4cc(Cl)ccc4[nH]c3=O)nn2)cc1)N1CCC(N2CCC(O)CC2)C1 (stereo not shown) [A249, 6-chloro-3-(1-{4-[3-(4-hydroxy-piperidin-1-yl)-pyrrolidine-1-carbonyl]-phenyl}-1H-[1,2,3]triazol-4-yl)-1H-quinolin-2-one] | 35 nM | 260 nM | 
14 | O=C(c1ccc(-n2cc(-c3cc4cc(F)ccc4[nH]c3=O)nn2)cc1)N1C[C@@H](O)CO1 [A274, 6-fluoro-3-{1-[4-((R)-4-hydroxy-isoxazolidine-2-carbonyl)-phenyl]-1H-[1,2,3]triazol-4-yl}-1H-quinolin-2-one] | 61 nM | 3.3 nM | 
15 | CN(C)C1CCN(C(=O)c2ccc(-n3cc(-c4cc5cc(Cl)ccc5[nH]c4=O)nn3)cc2)C1 (stereo not shown) [A254, 6-chloro-3-{1-[4-(3-dimethylamino-pyrrolidine-1-carbonyl)-phenyl]-1H-[1,2,3]triazol-4-yl}-1H-quinolin-2-one] | 57 nM | 24 nM | 
16 | CN(C)C1CCN(C(=O)c2ccc(-n3cc(-c4cc5ccccc5[nH]c4=O)nn3)cc2)CC1 [A61, 3-{1-[4-(4-dimethylamino-piperidine-1-carbonyl)-phenyl]-1H-[1,2,3]triazol-4-yl}-1H-quinolin-2-one] | 29 nM | 11 nM | 
17 | Cc1ccc(NC(=O)c2ccc(CN3CCN(C)CC3)cc2)cc1Nc1nccc(-c2cccnc2)n1 [Imatinib, imatinib] |  |  | ~70%
18 | O=c1[nH]c2ccccc2cc1-c1cnn(-c2ccccc2)c1 [A75, 3-(1-phenyl-1H-pyrazol-4-yl)-1H-quinolin-2-one] | 48 nM | 18 nM | 
19 | O=C(c1cccc(-n2cc(-c3cc4cc(F)ccc4[nH]c3=O)nn2)c1)N1CCC(N2CCCC2)C1 (stereo not shown) [A107, 3-{1-[3-([1,3′]bipyrrolidinyl-1′-carbonyl)-phenyl]-1H-[1,2,3]triazol-4-yl}-6-fluoro-1H-quinolin-2-one] | 44 nM | 23 nM | 
